Measurements taken from the supplement of paper PMC10307832.

How the values were obtained:
Assay in all cases: relative viability (nuclei count vs DMSO), 5 days (fraction); higher = more cells survive
Bicalutamide + OSI-027 = compound: CC(O)(CS(=O)(=O)c1ccc(F)cc1)C(=O)Nc1ccc(C#N)c(C(F)(F)F)c1 [Bicalutamide] + COc1cccc2cc(-c3nc([C@H]4CC[C@H](C(=O)O)CC4)n4ncnc(N)c34)[nH]c12 [OSI-027] (partner 0.5 µM)
Procedure, shortened: (§1)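 Relative viability equals treated-well nuclei counts divided by vehicle-well nuclei counts. Counts came from 4× images of lung cancer cell lines grown in 1536-well plates for 5 days after pin-tool dosing on the day after seeding. Dosing used one drug alone or a fixed anchor-drug dose plus five library-drug doses (not always all listed) in √10 steps, and values are medians of duplicate plates.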

[1] = compound: C(C(=O)C(=O)O)Br [Bromopyruvate] + COc1cc2c(Oc3ccc(NC(=O)C4(C(=O)Nc5ccc(F)cc5)CC4)cc3F)ccnc2cc1OCCCN1CCOCC1 [Foretinib] (partner 0.25 µM)
Procedure, shortened: as §1

Bicalutamide + AZD7762 = compound: CC(O)(CS(=O)(=O)c1ccc(F)cc1)C(=O)Nc1ccc(C#N)c(C(F)(F)F)c1 [Bicalutamide] + NC(=O)Nc1cc(-c2cccc(F)c2)sc1C(=O)N[C@H]1CCCNC1 [AZD7762] (partner 0.2 µM)
Procedure, shortened: as §1

[2] = compound: C(C(=O)C(=O)O)Br [Bromopyruvate] + CS(=O)(=O)CCNCc1ccc(-c2ccc3ncnc(Nc4ccc(OCc5cccc(F)c5)c(Cl)c4)c3c2)o1 [Lapatinib] (partner 2 µM)
Procedure, shortened: as §1

Cell Line	relative viability (Bicalutamide + OSI-027; first compound 0.08 µM)	relative viability (Bicalutamide + OSI-027; first compound 0.253 µM)	relative viability (Bicalutamide + OSI-027; first compound 0.8 µM)	relative viability (Bicalutamide + OSI-027; first compound 2.53 µM)	relative viability ([1]; first compound 1 µM)	relative viability ([1]; first compound 3.162 µM)	relative viability ([1]; first compound 10 µM)	relative viability ([1]; first compound 31.62 µM)	relative viability ([1]; first compound 100 µM)	relative viability (Bicalutamide + AZD7762; first compound 0.08 µM)	relative viability (Bicalutamide + AZD7762; first compound 0.253 µM)	relative viability (Bicalutamide + AZD7762; first compound 0.8 µM)	relative viability (Bicalutamide + AZD7762; first compound 2.53 µM)	relative viability ([2]; first compound 1 µM)	relative viability ([2]; first compound 3.162 µM)	relative viability ([2]; first compound 10 µM)	relative viability ([2]; first compound 31.62 µM)	relative viability ([2]; first compound 100 µM)
201T	0.727	0.609	0.735	0.736	1.15	1.08	1.29	1.21	1.29	0.637	0.408	0.586	0.599	1.03	1.06	1.03	0.942	1.02
A549					0.949	0.935	1.07	0.989	1.06					1.03	1.05	1.14	1.08	1
A-427	0.489	0.479	0.584	0.398	0.983	1.21	1.18	0.799	0.885	0.807	0.677	0.855	0.583	1.08	1.03	1.01	1.03	1.04
ABC-1	0.46	0.448	0.45	0.454	1.09	0.941	1.14	0.833	0.95	0.828	0.572	1.02	0.772	1.34	1.24	1.36	1.13	1.18
BEN	0.265	0.299	0.274	0.276	0.975	0.668	0.542	0.741	0.591	0.742	0.563	0.874	0.675	0.617	0.649	0.744	0.777	0.649
CAL-12T	0.574	0.638	0.72	0.431	1.14	1.05	1.09	1.07	1.06	0.729	0.655	0.703	0.68	0.669	0.698	0.794	0.748	0.902
COR-L23	0.814	0.751	0.955	0.705	0.905	0.914	1.02	0.971	0.434					0.744	0.869	1.43	0.846	0.87
COR-L 105	0.644	0.555	0.614	0.572	0.924	1.18	0.995	1.08	0.616					0.393	0.385	0.362	0.353	0.392
Calu-6					0.9	0.891	0.938	0.856	0.613					1.04	1.15	1.08	1.06	0.856
ChaGo-K-1	0.566	0.48	0.631	0.516	0.898	0.937	1.15	1.02	0.998	0.883	0.792	0.944	0.858					
EBC-1					0.1	0.107	0.102	0.112	0.0941					0.225	0.21	0.226	0.205	0.221
EKVX	0.747	0.631	0.739	0.718	0.83	0.779	0.929	0.819	1.34	0.693	0.613	0.797	0.664	0.218	0.213	0.343	0.207	0.211
EMC-BAC-2	0.404	0.374	0.364	0.246	0.964	0.979	1.06	0.933	1.1	1.05	1	1.09	0.735	0.832	0.922	1	0.833	0.912
EPLC-272H	0.314	0.34	0.325	0.243	0.777	0.718	0.81	0.688	0.888	0.155	0.297	0.215	0.239	1.02	1.06	0.839	0.916	1.05
H3255	0.525	0.591		0.498	0.902	0.806	0.93	0.938	0.922	0.949	0.791	1.11	0.823	0.272	0.321	0.239	0.249	0.273
HARA	0.633	0.361	0.744	0.483	0.91	0.868	0.984	0.824	0.93	0.382		0.368	0.262	0.825	0.829	0.707	0.9	0.844
HCC-15	0.71	0.612	0.908	0.571	1	1.05	1.07	1.08	1.02	1.07	1.05	1.2	1.09	0.868	0.873	0.849	0.856	0.844
HCC-44	0.723	0.403	0.66	0.477						1.02	1.05	1.02	1.01	0.959	1.02	1.11	1.1	1.02
HCC-78	0.381	0.371	0.43	0.352	0.55	0.533	0.589	0.539	0.532	0.758	0.598	0.696	0.611	1.04	0.893	0.702	1.03	0.591
HCC-366	0.955	0.848	1.08	0.718	0.927	0.976	0.961	0.759	0.963	0.392	0.229	0.332	0.281	1.03	1.02	1.24	1.01	1.05
HCC-827	0.795	0.697	0.86	0.751	1.05	1.02	1.02	1.08	1.08	0.234	0.124	0.217	0.227	0.205	0.191	0.167	0.193	0.214
HOP-62	0.927	0.844	0.956	0.785	1.12	1.17	1.12	0.95	0.815	0.567	0.494	0.848	0.432	1.04	1.02		1.02	1.02

Cell Line	relative viability (Bicalutamide + OSI-027; first compound 0.08 µM)	relative viability (Bicalutamide + OSI-027; first compound 0.253 µM)	relative viability (Bicalutamide + OSI-027; first compound 0.8 µM)	relative viability (Bicalutamide + OSI-027; first compound 2.53 µM)	relative viability ([1]; first compound 1 µM)	relative viability ([1]; first compound 3.162 µM)	relative viability ([1]; first compound 10 µM)	relative viability ([1]; first compound 31.62 µM)	relative viability ([1]; first compound 100 µM)	relative viability (Bicalutamide + AZD7762; first compound 0.08 µM)	relative viability (Bicalutamide + AZD7762; first compound 0.253 µM)	relative viability (Bicalutamide + AZD7762; first compound 0.8 µM)	relative viability (Bicalutamide + AZD7762; first compound 2.53 µM)	relative viability ([2]; first compound 1 µM)	relative viability ([2]; first compound 3.162 µM)	relative viability ([2]; first compound 10 µM)	relative viability ([2]; first compound 31.62 µM)	relative viability ([2]; first compound 100 µM)
IA-LM					1.12	1.19	1.07	1.17	0.914					0.772	0.86	0.527	0.816	0.617
LC-2-ad	0.962	0.718	0.885	0.684	0.922	0.99	1.01	0.914	0.988	0.852	0.838	0.915	0.883	0.977	0.982	0.933	0.921	0.971
LCLC-103H	0.464	0.425	0.476	0.451	0.568	0.748	0.97	0.797	1.02	0.829	0.791	0.8	0.814					
NCI-H441	0.689	0.585	0.669	0.534	1.08	1.02	0.986	0.984	0.947	1.06	1.08	1.13	1.16					
NCI-H520	0.237	0.228	0.373	0.251	0.83	0.805	0.646	0.859	0.895					0.846	0.966	0.98	0.766	0.739
NCI-H522	0.726	0.685	0.775	0.641						0.762	0.849	0.916	0.808					
NCI-H661	0.719	0.691	0.839	0.699	1.02	1.02	1.05	1.02	0.994					0.52	0.475	0.623	0.526	0.559
NCI-H1299					1.16	1.13	1.16	1.14	1.09					0.952	0.991	0.973	0.961	0.958
NCI-H1563	0.764	0.698	0.804	0.65	0.869	1.11	0.946	0.879	0.901					0.88	1.1	0.902	0.888	0.938
NCI-H1623	0.43	0.447	0.487	0.531	0.897	0.879	0.99	0.927	0.987									
NCI-H1648		0.299	0.29	0.225								0.736	0.686					
NCI-H1650	0.71	0.552	0.744	0.649	1.16	1.25	1.12	1.42	0.747					0.765	0.69	0.75	0.81	0.815
NCI-H1703					0.327	0.397	0.364	0.367	0.356	0.123	0.117	0.162	0.174	1.14	1.35	1.39	1.15	1.22
NCI-H1792	0.731	0.634	0.855	0.768						0.756	0.522	0.741	0.644	0.949	0.972	1.06	0.674	0.835
NCI-H2009	0.756	0.641	0.74	0.347	1.22	1.25	1.19	1.2	0.883					0.903	0.783	0.877	0.874	0.909
NCI-H2023	0.44	0.338	0.427	0.271	0.716	0.776	0.813	0.985	0.806					0.803	0.922	0.743	0.877	0.793
NCI-H2228	0.517	0.756	0.811	0.603	0.798	0.82	0.941	0.754	0.794					1.45	0.99	1.2	1.12	1.1
NCI-H2342	0.629	0.593	0.63	0.551	1.09	1.18	1.01	0.853	1.04	0.553	0.478	0.528	0.568					
SK-LU-1	0.371	0.39	0.358	0.276	0.846	0.867	0.954	0.671	0.799					1.06	0.806	0.81	0.823	0.88
SK-MES-1	0.601	0.607	0.665	0.491	0.964	0.962	0.938	0.75	1.17					0.417	0.466	0.488	0.432	0.465
SW 900	0.498	0.531	0.572	0.347	0.902	0.955	0.665	0.84	0.898	0.707	0.645	0.745	0.586					
SW 1573	0.629		0.734	0.656	0.741	0.845	0.982	0.996	0.868					1.11	1.03	1.09	1.05	0.904
